Article PMC6901109 (Bioorganic & medicinal chemistry letters, 2019)

What was measured:
HLM half-life = type: in vitro ADME; conditions: human, liver microsomes
Cryptococcus spp. = test: Antifungal activity against Cryptococcus spp.; type: cell-based
HepG2 = HepG2 viability; type: cell-based; conditions: at a concentration of 3 μM
PigW = target: T1, PigW (Homo sapiens, UniProt Q7Z7B1); test: PigW assay; type: biochemical
T1 sequence (Q7Z7B1 1-504): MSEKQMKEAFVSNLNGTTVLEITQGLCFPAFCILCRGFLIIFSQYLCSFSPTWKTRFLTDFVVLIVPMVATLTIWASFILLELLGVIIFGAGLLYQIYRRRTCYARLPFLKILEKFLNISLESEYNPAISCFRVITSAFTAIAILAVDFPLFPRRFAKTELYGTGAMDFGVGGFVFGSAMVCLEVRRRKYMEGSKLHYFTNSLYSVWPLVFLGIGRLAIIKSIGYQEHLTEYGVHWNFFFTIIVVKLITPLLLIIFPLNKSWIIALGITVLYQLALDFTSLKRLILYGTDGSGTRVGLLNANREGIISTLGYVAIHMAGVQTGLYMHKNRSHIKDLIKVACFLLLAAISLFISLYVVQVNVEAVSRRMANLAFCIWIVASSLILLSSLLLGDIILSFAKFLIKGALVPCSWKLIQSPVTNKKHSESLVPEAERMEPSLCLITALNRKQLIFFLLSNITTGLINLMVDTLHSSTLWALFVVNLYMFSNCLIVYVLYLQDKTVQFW

## Nc1ncccc1-c1cc(Cc2ccc(Cc3ccco3)cc2)no1 [Compound 8d]
HLM half-life
  half-life: ~3 min

## Nc1ncccc1-c1cc(Cc2ccc(Cc3ccc(F)o3)cc2)no1 [Compound 8e]
HLM half-life
  half-life: 14 min

## Nc1ncccc1-c1cc(Cc2ccc(CNCc3ccn[nH]3)cc2)no1 [Compound 10b]
Cryptococcus spp.
  antifungal activity (in words): inactive

## Cc1nccc(NCc2ccc(Cc3cc(-c4cccnc4N)on3)cc2)n1 [Compound 11b]
Cryptococcus spp.
  antifungal activity (in words): inactive

## Nc1ncccc1-c1cc(Cc2ccc(Oc3ccccn3)cc2)no1 [Compound 12b]
HepG2
  HepG2 cytotoxicity (in words): significant liability

## Cc1occc1COc1ccc(Cc2cc(-c3cccnc3N)on2)cn1 [Compound 13k]
Cryptococcus spp.; ortho-methyl group, vs 13j
  fold weaker antifungal activity compared to the unsubstituted analog 13j: about 100 fold

## Nc1ncccc1-c1cc(Cc2ccc(OCc3cccc(Cl)c3)nc2)no1 [Compound 13l]
HLM half-life
  half-life: 68.2 min
PigW
  activity against the human homolog PigW (in words): significant activity
